Like-named read-outs stand apart in the source and are kept apart here.
Test system: HepG2 human liver cancer cell line
Experiment: Functional Mitochondrial Toxicity Assay, XFe96 Seahorse (HepG2)
Assay type: cell-based
Protocol: The present Examples interrogate the two major energy producing pathways in the cell, mitochondrial respiration and glycolysis. HepG2 human liver cancer cell lines were dosed with test compounds and in real time the extracellular oxygen levels and pH were measured using the XFe96 flux analyser (Seahorse Biosciences). XFe Technology uses solid-state sensors to simultaneously measure both oxygen consumption rate (OCR) and extracellular acidification rate (ECAR) to determine effects on oxidative phosphorylation (OXPHOS) and glycolysis simultaneously. The cells were then subjected to sequential exposure to various inhibitors of mitochondrial functional to assess cellular metabolism.
A positive mitochondrial active compound is determined when there is a change in OCR or ECAR in the absence of cytotoxicity. Cytotoxicity was determined when both oxidative phosphorylation (OCR) and glycolysis (ECAR) were inhibited.
OCR is a measurement of oxygen content in extracellular media. Changes in OCR indicate effects on mitochondrial function, and can be bi-directional. A decrease is due to an inhibition of mitochondrial respiration, whilst an increase may indicate an uncoupler, in which respiration is not linked to energy production.
ECAR is the measurement of extracellular proton concentration (pH). An increase in signal means an increase in rate in number of pH ions (Thus decreasing pH value), and seen as an increase in glycolysis. Expressed as a fraction of basal control (rate prior to addition of compound).
Reverse capacity is the measured ability of cells to respond to an increase in energy demand, a reduction indicates mitochondrial dysfunction.
The Mitochondrial Stress Test is a series of sequential additions of compounds to the cells to assess a bioenergetics profile, and effects of test compounds on parameters such as proton leak and research capacity. This was used to assist in understanding potential mechanisms of mitochondrial toxicity. For example, it involves the addition of the follow compounds in this order:
Oligomycin is a known inhibitor of ATP synthase, and prevents the formation of ATP. This provides a measurement of the amount of oxygen consumption related to ATP production and ATP turnover. The addition of Oligomycin results in a decrease in OCR under normal conditions, and residual OCR is related to the natural proton leak.
Carbonyl cyanide 4-(trifluoromethoxy)phenylhydrazine (FCCP) is a protonphore, and is a known uncoupler of oxygen consumption from ATP production. This allows the maximum achievable transfer of electrons and oxygen consumption rate, and provides a measurement of reserve capacity.
Rotenone and antimycin A are known inhibitors of complex I and III of the electron transport chain, respectively. This inhibits electron transport completely, and any residual oxygen consumption is due to non-mitochondrial activity via oxygen requiring enzymes.

[1] = HepG2, read-out: Reserve Capacity AC50

Molecule	Potential Mechanism (HepG2)	AC50 (HepG2, read-out: ECAR AC50) [µM]	AC50 (HepG2, read-out: OCR AC50) [µM]	AC50 [1] [µM]	Reserve Capacity MEC (HepG2) [µM]	Reserve Capacity ↑↓ (HepG2)	other results
(D-Lys)(L-Leu)(L-Orn)(L-Leu)-NH2 [Peptide I-25]	No effect	> 100	> 100	> 100			
(D-Lys)(L-Dmt)(L-Lys)(L-Phe)-NH2 [Peptide I-6]	Other	> 100	> 100	> 100	50.3	↑	
(D-Arg)(L-Leu)(L-Lys)(L-Phe)-NH2 [Peptide I-21]	Other	> 100	> 100	> 100	62.5	↑	
(D-Arg)(L-Dmt)(L-Lys)(L-Tyr)-NH2 [Peptide I-9]	No effect	> 100	> 100	> 100			
(L-Phe)(L-Orn)(L-Dmt)(D-Arg)-NH2 [Peptide I-12]	No effect	> 100	> 100	> 100			
(D-Phe)(D-Orn)(D-Leu)(L-Arg)-NH2 [Peptide I-35]	Other	> 100	> 100	5.28	<0.1	↓	
(L-Phe)(L-Orn)(L-Tyr)(D-Orn)-NH2 [Peptide I-15]	Other	> 100	> 100	> 100	64.7	↑	
(D-Arg)(L-Leu)(L-Orn)(L-Phe)-NH2 [Peptide I-23]	Other	> 100	> 100	> 100	65.9	↑	
(L-Leu)(L-Orn)(L-Leu)(D-Orn)-NH2 [Peptide I-32]	Other	> 100	> 100	9.32	0.277	↓	
(D-Lys)(L-Dmt)(L-Orn)(L-Phe)-NH2 [Peptide I-7]	No effect	> 100	> 100	> 100			
(D-Arg)(L-Tyr)(L-Orn)(L-Phe)-NH2 [Peptide I-3]	Other	> 100	> 100	> 100		↑	Reserve Capacity MEC (HepG2, listed as I-3 (1)): 48.5 µM; Reserve Capacity MEC (HepG2, listed as I-3 (2)): 85.3 µM
(L-Phe)(L-Orn)(L-Dmt)(D-Orn)-NH2 [Peptide I-13]	Other	> 100	> 100				Reserve Capacity MEC (HepG2, listed as I-13 (1)): 13.4 µM; Reserve Capacity ↑↓ (HepG2, listed as I-13 (1)): ↑; AC50 (HepG2, listed as I-13 (1), read-out: Reserve Capacity AC50): 81.9 µM; Reserve Capacity MEC (HepG2, listed as I-13 (2)): 0.167 µM; Reserve Capacity ↑↓ (HepG2, listed as I-13 (2)): ↓; AC50 (HepG2, listed as I-13 (2), read-out: Reserve Capacity AC50): 4.72 µM
(D-Orn)(L-Phe)(L-Orn)(L-Phe)-NH2 [Peptide I-27]	No effect	> 100	> 100	> 100			
(L-Phe)(L-Orn)(L-Phe)(D-Orn)-NH2 [Peptide I-33]	No effect	> 100	> 100	> 100			
C=C(C)[C@H]1Cc2c(ccc3c2O[C@@H]2COc4cc(OC)c(OC)cc4[C@@H]2C3=O)O1 [Rotenone, reference compound]	ETC				<0.003	↓	ECAR MEC (HepG2): 0.00325 µM; ECAR ↑↓ (HepG2): ↑; OCR MEC (HepG2): <0.003 µM; OCR ↑↓ (HepG2): ↓; AC50 (Homo sapiens, HepG2, read-out: ECAR AC50): 0.496 µM; AC50 (Homo sapiens, HepG2, read-out: OCR AC50): 0.0138 µM; AC50 (Homo sapiens, HepG2, read-out: Reserve Capacity AC50): 0.00349 µM
(D-Orn)(L-Leu)(L-Orn)(L-Leu)-NH2 [Peptide I-26]	No effect	> 100	> 100	> 100			
(D-Orn)(L-Tyr)(L-Orn)(L-Phe)-NH2 [Peptide I-5]	Other	> 100	> 100				Reserve Capacity MEC (HepG2, listed as I-5 (1)): 15.8 µM; Reserve Capacity ↑↓ (HepG2, listed as I-5 (1)): ↑; AC50 (HepG2, listed as I-5 (1), read-out: Reserve Capacity AC50): > 100 µM; Reserve Capacity MEC (HepG2, listed as I-5 (2)): <0.1 µM; Reserve Capacity ↑↓ (HepG2, listed as I-5 (2)): ↓; AC50 (HepG2, listed as I-5 (2), read-out: Reserve Capacity AC50): 0.954 µM
(D-Phe)(D-Orn)(D-Phe)(L-Orn)-NH2 [Peptide I-38]	No effect	> 100	> 100	> 100			
(D-Arg)(L-Dmt)(L-Orn)(L-Phe)-NH2 [Peptide I-2]	No effect	> 100	> 100	> 100			
(D-Arg)(L-Dmt)(L-Orn)(L-Tyr)-NH2 [Peptide I-10]	No effect	> 100	> 100	> 100			
(D-Arg)(L-Leu)(L-Orn)(L-Leu)-NH2 [Peptide I-24]	Other	> 100	> 100	> 100	33.8	↑	
(D-Leu)(D-Orn)(D-Leu)(L-Orn)-NH2 [Peptide I-37]	Other	> 100	> 100	1.11	<0.1	↓	OCR MEC (HepG2): 143 µM; OCR ↑↓ (HepG2): ↓
(D-Phe)(D-Orn)(D-Leu)(L-Orn)-NH2 [Peptide I-36]	Other	> 100	> 100	6.45	0.139	↓	
